IC50 data for 2 compounds are collected here from patent publication US20030187059A1, “Methods and compounds useful in inhibiting oxidative and/or free radical damage and in the treatment and prevention of disease” (priority 2002, published 2003).

Structures are written as SMILES.

This experiment deals with rat liver microsomes. As to the kind of experiment: Inhibition of ferrous ion-stimulated formation of maliondialdehyde (lipid peroxidation) in rat liver microsomes. To be noted: ferrous sulfate 1 mM, 37° C. for 1 hour, test compound in DMSO, read-out: IC50, inhibition of production of MDA (as measured by the MDA-TBA adduct). Type of experiment: biochemical. How it is done: The in vitro antioxidant activity of Compound MH-1 was evaluated by measuring its inhibitory effect on the ferrous ion-stimulated formation of maliondialdehyde (“MDA”), an end product of lipid peroxidation, in rat liver microsomes. The antioxidant activity of Compound MH-1 was compared with the in vitro antioxidant activity of α-tocopherol, a known antioxidant. A modified procedure originally described in Bernheim et al., “The Reaction Between Thiobarbituric Acid and the Oxidation Products of Certain Lipids,” J. Biol. Chem., 174:257-264 (1948) and Wills, “Lipid Peroxide Formation in Microsomes,” Biochem. J., 113:325-332 (1969), which are hereby incorporated by reference, was used to carry out the assay.
Freshly harvested rat livers (100 mg/ml) were homogenized in Tris-KCl buffer (0.05M, pH 7.4). The microsomal fraction was isolated by differential centrifugation (40,000 rpm; 106,000 g) and resuspended in Tris-KCl (100 mg/ml, initial concentration). The microsomal suspension was incubated with or without the test compound (Compound MH-1 in DMSO, 0.0-0.5mM or α-tocopherol in dimethylsulfoxide, 0.0-0.6 mM) at 37° C. for 3 minutes. […] Maliondialdeyde-TBA adduct concentrations in the butanol extract were measured by fluorescence spectroscopy (emission 553 nm, excitation 532 nm). […]
Background: Liver microsomes are a subcellular fraction often used to study metabolism.

By IC50 is commonly meant the point on the concentration scale where inhibition reaches its midpoint.

As for `Cc1c(C)c2c(c(C)c1OC(=O)CCCC[C@@H]1CCSS1)CC[C@@](C)(CC[C@H](C)CCC[C@H](C)CCCC(C)C)O2` [Compound MH-1], the half-inhibitory concentration (IC50) was found to be 266 µM.

With `Cc1c(C)c2c(c(C)c1O)CC[C@@](C)(CCC[C@H](C)CCC[C@H](C)CCCC(C)C)O2` [α-tocopherol], the half-inhibitory concentration (IC50) was 307 µM.
